This note sets out measurements from patent US10899699B2, “Vinylogous phenethylamines as neurotransmitter releasers” (RESEARCH TRIANGLE INSTITUTE, priority 2016, dated 2021).

Counter-ions that a name gives are not always drawn.

As to `C[C@@H](N)C/C=C\c1ccccc1` (as salt: hydrochloride) [R-8, (1R,3Z)-1-Methyl-4-phenyl-but-3-enylamine], the melting point (in general, the temperature of the solid-liquid transition) lay in the range of 83 to 84 °C. As for `C[C@@H](N)C/C=C/c1ccccc1` (as salt: hydrochloride) [R-6, (1R,3E)-1-Methyl-4-phenyl-but-3-enylamine], the figure is 172 to 174 °C; as for `C[C@H](N)C/C=C\c1ccccc1` (as salt: hydrochloride) [S-8, (1S,3Z)-1-Methyl-4-phenyl-but-3-enylamine], 83 to 84 °C.

The compound `CC(N)CC#Cc1ccccc1` (racemic) (as salt: hydrochloride) [compound 4, 1-Methyl-4-phenyl-but-3-ynylamine] came in with a melting point of 131 to 132 °C. Then `CC(N)/C=C/c1ccccc1` (centres unmarked) (as salt: hydrochloride) [compound 10, (2E)-1-Methyl-3-phenyl-prop-2-enylamine], with 151 to 152 °C; and `C[C@H](N)C/C=C/c1ccccc1` (as salt: hydrochloride) [S-6, (1S,3E)-1-Methyl-4-phenyl-but-3-enylamine], with 172 to 173 °C. In the case of `CC(N)C/C=C/c1ccccc1` (racemic) (as salt: hydrochloride) [compound 6, (3E)-1-Methyl-4-phenyl-but-3-enylamine], the melting point was 147 to 148 °C.

Compound `CC(N)C/C=C\c1ccccc1` (racemic) (as salt: hydrochloride) [compound 8, (3Z)-1-Methyl-4-phenyl-but-3-enylamine] returned a melting point of 115 to 117 °C. Then `CC(N)/C=C\c1ccccc1` (centres unmarked) (as salt: hydrochloride) [compound 11, (2Z)-1-Methyl-3-phenyl-prop-2-enylamine], with 149 to 151 °C. As for `C[C@H](N)CC#Cc1ccccc1` (as salt: hydrochloride) [S-4, (1S)-1-Methyl-4-phenyl-but-3-ynylamine], the figure is 141 to 142 °C; as for `C[C@@H](N)CC#Cc1ccccc1` (as salt: hydrochloride) [R-4, (1R)-1-Methyl-4-phenyl-but-3-ynylamine], 143 to 144 °C.
